In the supplement of paper PMC11061612:

Legend:
[1] = test system: C-4-I (Cervical Carcinoma); assay: Bliss excess, mean over the matrix (fraction); higher = more synergy
In short: (§1)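 Cell lines grown in DMEM/F12 or RPMI with 10% FBS were plated in 1536-well plates and held 24 hours at 37°C, 5% CO2 before 72 hours of exposure to two-drug dose matrices, with DMSO typically at 0.2%. CellTiter-Glo 2.0 luminescence gave viability, which was converted to inhibition. Vehicle wells were set to 0 and blank wells to 1. Combination Emax is the second-highest inhibition in the matrix, and Bliss excess is the observed combination effect minus the expected EA + EB − EA·EB, where EA and EB are the single-agent effects.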

[2] = test system: HGC-27 (Gastric Carcinoma); assay: as above
In short: as §1

[3] = test system: HOP-62 (Lung Adenocarcinoma); assay: as above
In short: as §1

[4] = test system: HSC-4 (Oral Cavity Carcinoma); assay: as above
In short: as §1

[5] = test system: KMOE-2 (Acute Myeloid Leukemia); assay: as above
In short: as §1

[6] = test system: NCI-H1915 (Non-Small Cell Lung Carcinoma); assay: as above
In short: as §1

[7] = test system: NEC8 (Other Solid Carcinomas); assay: as above
In short: as §1

[8] = test system: NUGC-3 (Gastric Carcinoma); assay: as above
In short: as §1

[9] = test system: OE19 (Esophageal Adenocarcinoma); assay: as above
In short: as §1

[10] = test system: OSC-20 (Oral Cavity Carcinoma); assay: as above
In short: as §1

[11] = test system: OVCAR-4 (Ovarian Carcinoma); assay: as above
In short: as §1

PWR-1E (Non-Cancerous) [12] = assay: as above
In short: as §1

[13] = test system: SCC-15 (Oral Cavity Carcinoma); assay: as above
In short: as §1

[14] = test system: SU8686 (Pancreatic Carcinoma); assay: as above
In short: as §1

[15] = test system: TE-1 (Esophageal Squamous Cell Carcinoma); assay: as above
In short: as §1

[16] = test system: VA-ES-BJ (Other Solid Carcinomas); assay: as above
In short: as §1

[17] = test system: C-4-I (Cervical Carcinoma); assay: combination Emax (second highest fraction inhibited in the dose matrix, 72 h); higher = more inhibition; extreme values may be limits of the assay
In short: as §1

[18] = test system: HGC-27 (Gastric Carcinoma); assay: as above
In short: as §1

[19] = test system: HOP-62 (Lung Adenocarcinoma); assay: as above
In short: as §1

[20] = test system: HSC-4 (Oral Cavity Carcinoma); assay: as above
In short: as §1

[21] = test system: KMOE-2 (Acute Myeloid Leukemia); assay: as above
In short: as §1

[22] = test system: NCI-H1915 (Non-Small Cell Lung Carcinoma); assay: as above
In short: as §1

[23] = test system: NEC8 (Other Solid Carcinomas); assay: as above
In short: as §1

[24] = test system: NUGC-3 (Gastric Carcinoma); assay: as above
In short: as §1

[25] = test system: OE19 (Esophageal Adenocarcinoma); assay: as above
In short: as §1

[26] = test system: OSC-20 (Oral Cavity Carcinoma); assay: as above
In short: as §1

[27] = test system: OVCAR-4 (Ovarian Carcinoma); assay: as above
In short: as §1

PWR-1E (Non-Cancerous) [28] = assay: as above
In short: as §1

[29] = test system: SCC-15 (Oral Cavity Carcinoma); assay: as above
In short: as §1

[30] = test system: SU8686 (Pancreatic Carcinoma); assay: as above
In short: as §1

[31] = test system: TE-1 (Esophageal Squamous Cell Carcinoma); assay: as above
In short: as §1

[32] = test system: VA-ES-BJ (Other Solid Carcinomas); assay: as above
In short: as §1
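Wherever Bliss excess, mean over the matrix is given: after 72 h of two-drug dosing.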

Row | Compound | Bliss excess [1] | Bliss excess [2] | Bliss excess [3] | Bliss excess [4] | Bliss excess [5] | Bliss excess [6] | Bliss excess [7] | Bliss excess [8] | Bliss excess [9] | Bliss excess [10] | Bliss excess [11] | Bliss excess (PWR-1E (Non-Cancerous) [12]) | Bliss excess [13] | Bliss excess [14] | Bliss excess [15] | Bliss excess [16] | combination Emax [17] | combination Emax [18] | combination Emax [19] | combination Emax [20] | combination Emax [21] | combination Emax [22] | combination Emax [23] | combination Emax [24] | combination Emax [25] | combination Emax [26] | combination Emax [27] | combination Emax (PWR-1E (Non-Cancerous) [28]) | combination Emax [29] | combination Emax [30] | combination Emax [31] | combination Emax [32]
1 | COc1nnc2ccc(N3CCC(c4ccc(OCCN5CCN(C)C(=O)[C@H]5C)cc4)CC3)nn12 [AZD5153] + CN(CC[C@H](CSC1=CC=CC=C1)NC2=C(C=C(C=C2)S(=O)(=O)NC(=O)C3=CC=C(C=C3)N4CCC(CC4)[C@H](C5=CC=CC=C5C6=CC=C(C=C6)Cl)O)S(=O)(=O)C(F)(F)F)CCO [AZD4320] (first compound max 1 µM, 7x7, partner max 1 µM) | 0.0692 | -0.0329 | 0.011 | -0.0287 | 0.0295 | 0.0678 | 0.0236 | 0.0423 | 0.0208 | -0.0543 | 0.0377 | 0.0243 | 0.001 | -0.0373 | -0.0193 | 0.0839 | 0.762 | 0.772 | 0.635 | 0.217 | 0.993 | 0.57 | 0.962 | 0.639 | 0.501 | 0.132 | 0.458 | 0.714 | 0.39 | 0.0559 | 0.485 | 0.517
2 | CC(=O)c1c(C)c2cnc(Nc3ccc(N4CCNCC4)cn3)nc2n(C2CCCC2)c1=O [Palbociclib] + CN(CC[C@H](CSC1=CC=CC=C1)NC2=C(C=C(C=C2)S(=O)(=O)NC(=O)C3=CC=C(C=C3)N4CCC(CC4)[C@H](C5=CC=CC=C5C6=CC=C(C=C6)Cl)O)S(=O)(=O)C(F)(F)F)CCO [AZD4320] (first compound max 10 µM, 7x7, partner max 1 µM) | -0.0686 | 0.0123 | -0.0777 | -0.0833 | -0.0213 | -0.0273 | -0.0337 | -0.0659 | -0.0369 | -0.0381 | -0.0354 | -0.0204 | -0.0694 | -0.0447 | -0.0322 | -0.0288 | 0.372 | 0.764 | 0.332 | 0.0868 | 0.96 | 0.491 | 0.209 | 0.714 | 0.467 | 0.182 | 0.22 | 0.278 | 0.206 | 0.0398 | 0.439 | 0.309
3 | C[C@@H](c1ccc2nccn2c1)n1nnc2ncc(-c3cnn(C)c3)nc21 [Savolitinib] + CN(CC[C@H](CSC1=CC=CC=C1)NC2=C(C=C(C=C2)S(=O)(=O)NC(=O)C3=CC=C(C=C3)N4CCC(CC4)[C@H](C5=CC=CC=C5C6=CC=C(C=C6)Cl)O)S(=O)(=O)C(F)(F)F)CCO [AZD4320] (first compound max 1 µM, 7x7, partner max 1 µM) | -0.0399 | -0.0098 | -0.0729 | -0.0591 | -0.0537 | -0.0519 | -0.0021 | -0.0429 | -0.0091 | -0.0626 | -0.0293 | -0.0221 | -0.0604 | -0.0255 | -0.0316 | -0.029 | 0.234 | 0.233 | 0.122 | 0.24 | 0.59 | 0.132 | 0.302 | 0.279 | 0.22 | 0.129 | 0.126 | 0.211 | 0.29 | 0.173 | 0.289 | 0.182
